Experimental data reported in paper PMC5392334, “Discovery and characterization of a novel irreversible EGFR mutants selective and potent kinase inhibitor CHMFL-EGFR-26 with a distinct binding mode” (Oncotarget, 2017).

Key:
DYRK2 = biological target: T1, DYRK2 (Homo sapiens, UniProt Q92630); test: KinomeScan; type: binding; conditions: read-out: % control
T1 construct: purchased DiscoveRx KINOMEscan

PIP5K1A = biological target: T2, PIP5K1A (Homo sapiens, UniProt Q99755); test: KinomeScan; type: binding; conditions: read-out: % control
T2 construct: purchased DiscoveRx KINOMEscan

ABL1-nonphosphorylated = biological target: T3, ABL1-nonphosphorylated (Homo sapiens, UniProt P00519); test: KinomeScan; type: binding; conditions: read-out: % control
T3 construct: purchased DiscoveRx KINOMEscan

TTK = biological target: T4, TTK (Homo sapiens, UniProt P33981); test: KinomeScan; type: binding; conditions: read-out: % control
T4 construct: purchased DiscoveRx KINOMEscan
T4 sequence (P33981 whole entry): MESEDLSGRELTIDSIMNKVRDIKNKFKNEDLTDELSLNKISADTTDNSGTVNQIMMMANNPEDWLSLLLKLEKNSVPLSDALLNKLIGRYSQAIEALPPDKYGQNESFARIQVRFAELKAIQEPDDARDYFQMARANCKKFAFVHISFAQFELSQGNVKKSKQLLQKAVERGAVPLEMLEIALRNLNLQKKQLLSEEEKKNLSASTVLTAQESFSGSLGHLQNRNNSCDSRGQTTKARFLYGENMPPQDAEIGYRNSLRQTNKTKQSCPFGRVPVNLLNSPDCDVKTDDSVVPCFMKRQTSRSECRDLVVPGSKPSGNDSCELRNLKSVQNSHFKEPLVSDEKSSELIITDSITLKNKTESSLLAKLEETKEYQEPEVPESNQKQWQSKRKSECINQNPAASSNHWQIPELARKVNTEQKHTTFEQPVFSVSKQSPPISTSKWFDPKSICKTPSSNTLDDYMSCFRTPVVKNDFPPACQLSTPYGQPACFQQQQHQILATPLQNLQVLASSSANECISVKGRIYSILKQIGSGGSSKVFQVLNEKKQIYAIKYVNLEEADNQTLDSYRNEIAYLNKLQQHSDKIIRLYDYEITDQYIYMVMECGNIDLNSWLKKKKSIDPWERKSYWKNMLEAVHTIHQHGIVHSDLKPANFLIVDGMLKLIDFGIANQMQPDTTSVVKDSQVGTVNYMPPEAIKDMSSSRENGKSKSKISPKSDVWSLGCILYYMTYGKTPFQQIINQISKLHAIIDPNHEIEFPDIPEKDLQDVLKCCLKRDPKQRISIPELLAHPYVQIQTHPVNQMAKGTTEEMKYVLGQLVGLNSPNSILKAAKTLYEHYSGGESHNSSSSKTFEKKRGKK

RIOK1 = biological target: T5, RIOK1 (Homo sapiens, UniProt Q9BRS2); test: KinomeScan; type: binding; conditions: read-out: % control
T5 construct: purchased DiscoveRx KINOMEscan
T5 sequence (Q9BRS2 whole entry): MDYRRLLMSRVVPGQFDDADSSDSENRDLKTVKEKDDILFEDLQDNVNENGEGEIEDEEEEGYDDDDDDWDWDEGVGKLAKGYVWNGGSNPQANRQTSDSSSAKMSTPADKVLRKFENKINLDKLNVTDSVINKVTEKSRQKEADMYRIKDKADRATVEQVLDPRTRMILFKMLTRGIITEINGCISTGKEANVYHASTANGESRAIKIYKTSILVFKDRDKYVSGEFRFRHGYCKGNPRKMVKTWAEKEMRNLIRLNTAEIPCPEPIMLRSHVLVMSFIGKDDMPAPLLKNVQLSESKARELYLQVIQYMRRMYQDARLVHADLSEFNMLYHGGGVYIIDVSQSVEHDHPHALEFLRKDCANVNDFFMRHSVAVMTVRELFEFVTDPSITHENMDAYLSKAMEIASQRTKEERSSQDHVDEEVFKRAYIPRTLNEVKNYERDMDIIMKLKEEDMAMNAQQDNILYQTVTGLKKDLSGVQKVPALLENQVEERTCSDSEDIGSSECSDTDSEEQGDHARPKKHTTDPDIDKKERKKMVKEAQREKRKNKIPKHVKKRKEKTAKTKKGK

EPHA4 = biological target: T6, EPHA4 (Homo sapiens, UniProt P54764); test: KinomeScan; type: binding; conditions: read-out: % control
T6 construct: purchased DiscoveRx KINOMEscan

ULK2 = biological target: T7, ULK2 (Homo sapiens, UniProt Q8IYT8); test: KinomeScan; type: binding; conditions: read-out: % control
T7 construct: purchased DiscoveRx KINOMEscan

CAMK1B = biological target: T8, CAMK1B (Homo sapiens, UniProt Q6P2M8); test: KinomeScan; type: binding; conditions: read-out: % control
T8 construct: purchased DiscoveRx KINOMEscan

LIMK2 = biological target: T9, LIMK2 (Homo sapiens, UniProt P53671); test: KinomeScan; type: binding; conditions: read-out: % control
T9 construct: purchased DiscoveRx KINOMEscan

PCTK1 = biological target: T10, PCTK1 (Homo sapiens, UniProt Q00536); test: KinomeScan; type: binding; conditions: read-out: % control
T10 construct: purchased DiscoveRx KINOMEscan

PIK3CD = biological target: T11, PIK3CD (Homo sapiens, UniProt O00329); test: KinomeScan; type: binding; conditions: read-out: % control
T11 construct: purchased DiscoveRx KINOMEscan

CSNK1A1L = biological target: T12, CSNK1A1L (Homo sapiens, UniProt Q8N752); test: KinomeScan; type: binding; conditions: read-out: % control
T12 construct: purchased DiscoveRx KINOMEscan

ERK8 = biological target: T13, ERK8 (Homo sapiens, UniProt Q8TD08); test: KinomeScan; type: binding; conditions: read-out: % control
T13 construct: purchased DiscoveRx KINOMEscan

H2122 (EGFR wt) = test: Anti-proliferation, NSCLC cell lines (CellTiter-Glo); type: cell-based; conditions: Homo sapiens, NCI-H2122, 72 hours, triplet testing
Procedure: (§1) The human cancer cell lines H1975, HCC827, H2122, CHO, CHL and H1355 were purchased from the American Type Culture Collection (ATCC) (Manassas, VA, USA). PC9 cell line was purchased from the Sigma-Aldrich (St. Louis, MO, USA). A549, H3255 were purchased from Cobioer Biosciences CO., LTD (Nanjing, China). […] A549 and H1355 were cultured in F-12K Nutrient Mixture (kaighn's Modification) (Gibco, USA) with 10% FBS and supplemented with 2% L-glutamine and 1% pen/strep. H3255 was cultured in BEGM media (LONZA, USA) with 10% FBS and supplemented with 2% L-glutamine and 1% pen/strep.

HCC827 (EGFR del19) = test: as above; type: cell-based; conditions: Homo sapiens, 72 hours, triplet testing
Procedure: as §1

A549 (EGFR wt) = test: as above; type: cell-based; conditions: Homo sapiens, 72 hours, triplet testing
Procedure: as §1

H1703 (EGFR wt) = test: as above; type: cell-based; conditions: Homo sapiens, NCI-H1703, 72 hours, triplet testing
Procedure: as §1

PC-9 (EGFR del19) = test: as above; type: cell-based; conditions: Homo sapiens, 72 hours, triplet testing
Procedure: as §1

H3255 (EGFRL858R) = test: as above; type: cell-based; conditions: Homo sapiens, NCI-H3255, 72 hours, triplet testing
Procedure: as §1

H1355(EGFR wt) = test: as above; type: cell-based; conditions: Homo sapiens, NCI-H1355, 72 hours, triplet testing
Procedure: as §1

LATS2 = biological target: T14, LATS2 (Homo sapiens, UniProt Q9NRM7); test: KinomeScan; type: binding; conditions: read-out: % control
T14 construct: purchased DiscoveRx KINOMEscan

MST1R = biological target: T15, MST1R (Homo sapiens, UniProt Q04912); test: KinomeScan; type: binding; conditions: read-out: % control
T15 construct: purchased DiscoveRx KINOMEscan

[1] = biological target: T16, ABL1(T315I)-nonphosphorylated (Homo sapiens, UniProt P00519, T315I); test: KinomeScan; type: binding; conditions: read-out: % control
T16 construct: purchased DiscoveRx KINOMEscan

YES = biological target: T17, YES (Homo sapiens, UniProt P07947); test: KinomeScan; type: binding; conditions: read-out: % control
T17 construct: purchased DiscoveRx KINOMEscan

GSK3A = biological target: T18, GSK3A (Homo sapiens, UniProt P49840); test: KinomeScan; type: binding; conditions: read-out: % control
T18 construct: purchased DiscoveRx KINOMEscan
T18 sequence (P49840 whole entry): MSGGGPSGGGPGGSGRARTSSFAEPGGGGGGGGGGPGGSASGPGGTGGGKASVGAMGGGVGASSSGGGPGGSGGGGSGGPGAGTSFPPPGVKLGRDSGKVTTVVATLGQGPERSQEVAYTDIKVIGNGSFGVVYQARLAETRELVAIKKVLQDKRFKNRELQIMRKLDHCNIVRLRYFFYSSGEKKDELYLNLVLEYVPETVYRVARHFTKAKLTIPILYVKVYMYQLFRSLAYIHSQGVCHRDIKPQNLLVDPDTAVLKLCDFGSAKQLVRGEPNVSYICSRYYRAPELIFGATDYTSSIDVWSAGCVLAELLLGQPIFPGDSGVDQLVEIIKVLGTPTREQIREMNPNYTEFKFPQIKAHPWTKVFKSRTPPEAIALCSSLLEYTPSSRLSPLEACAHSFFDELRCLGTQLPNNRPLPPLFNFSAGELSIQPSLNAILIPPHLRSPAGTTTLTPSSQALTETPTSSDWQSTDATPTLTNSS

TSSK1B = biological target: T19, TSSK1B (Homo sapiens, UniProt Q9BXA7); test: KinomeScan; type: binding; conditions: read-out: % control
T19 construct: purchased DiscoveRx KINOMEscan

AMPK-alpha2 = biological target: T20, AMPK-alpha2 (Homo sapiens, UniProt P54646); test: KinomeScan; type: binding; conditions: read-out: % control
T20 construct: purchased DiscoveRx KINOMEscan
T20 sequence (P54646 whole entry): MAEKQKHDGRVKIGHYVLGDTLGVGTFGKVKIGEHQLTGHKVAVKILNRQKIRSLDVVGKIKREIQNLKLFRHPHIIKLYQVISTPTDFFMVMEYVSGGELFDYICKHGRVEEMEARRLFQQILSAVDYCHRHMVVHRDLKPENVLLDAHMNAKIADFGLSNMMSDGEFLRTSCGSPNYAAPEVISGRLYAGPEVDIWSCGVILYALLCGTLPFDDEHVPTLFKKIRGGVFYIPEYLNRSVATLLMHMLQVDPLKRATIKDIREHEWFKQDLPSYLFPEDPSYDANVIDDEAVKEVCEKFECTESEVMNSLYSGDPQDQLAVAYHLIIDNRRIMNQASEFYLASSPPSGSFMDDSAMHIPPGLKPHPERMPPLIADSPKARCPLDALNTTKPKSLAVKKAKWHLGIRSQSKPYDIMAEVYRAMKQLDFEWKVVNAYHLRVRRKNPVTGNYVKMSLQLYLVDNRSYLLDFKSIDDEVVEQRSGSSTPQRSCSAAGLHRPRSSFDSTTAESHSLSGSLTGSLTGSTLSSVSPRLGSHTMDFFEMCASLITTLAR

MYLK = biological target: T21, MYLK (Homo sapiens, UniProt Q15746); test: KinomeScan; type: binding; conditions: read-out: % control
T21 construct: purchased DiscoveRx KINOMEscan
T21 sequence (Q15746 whole entry): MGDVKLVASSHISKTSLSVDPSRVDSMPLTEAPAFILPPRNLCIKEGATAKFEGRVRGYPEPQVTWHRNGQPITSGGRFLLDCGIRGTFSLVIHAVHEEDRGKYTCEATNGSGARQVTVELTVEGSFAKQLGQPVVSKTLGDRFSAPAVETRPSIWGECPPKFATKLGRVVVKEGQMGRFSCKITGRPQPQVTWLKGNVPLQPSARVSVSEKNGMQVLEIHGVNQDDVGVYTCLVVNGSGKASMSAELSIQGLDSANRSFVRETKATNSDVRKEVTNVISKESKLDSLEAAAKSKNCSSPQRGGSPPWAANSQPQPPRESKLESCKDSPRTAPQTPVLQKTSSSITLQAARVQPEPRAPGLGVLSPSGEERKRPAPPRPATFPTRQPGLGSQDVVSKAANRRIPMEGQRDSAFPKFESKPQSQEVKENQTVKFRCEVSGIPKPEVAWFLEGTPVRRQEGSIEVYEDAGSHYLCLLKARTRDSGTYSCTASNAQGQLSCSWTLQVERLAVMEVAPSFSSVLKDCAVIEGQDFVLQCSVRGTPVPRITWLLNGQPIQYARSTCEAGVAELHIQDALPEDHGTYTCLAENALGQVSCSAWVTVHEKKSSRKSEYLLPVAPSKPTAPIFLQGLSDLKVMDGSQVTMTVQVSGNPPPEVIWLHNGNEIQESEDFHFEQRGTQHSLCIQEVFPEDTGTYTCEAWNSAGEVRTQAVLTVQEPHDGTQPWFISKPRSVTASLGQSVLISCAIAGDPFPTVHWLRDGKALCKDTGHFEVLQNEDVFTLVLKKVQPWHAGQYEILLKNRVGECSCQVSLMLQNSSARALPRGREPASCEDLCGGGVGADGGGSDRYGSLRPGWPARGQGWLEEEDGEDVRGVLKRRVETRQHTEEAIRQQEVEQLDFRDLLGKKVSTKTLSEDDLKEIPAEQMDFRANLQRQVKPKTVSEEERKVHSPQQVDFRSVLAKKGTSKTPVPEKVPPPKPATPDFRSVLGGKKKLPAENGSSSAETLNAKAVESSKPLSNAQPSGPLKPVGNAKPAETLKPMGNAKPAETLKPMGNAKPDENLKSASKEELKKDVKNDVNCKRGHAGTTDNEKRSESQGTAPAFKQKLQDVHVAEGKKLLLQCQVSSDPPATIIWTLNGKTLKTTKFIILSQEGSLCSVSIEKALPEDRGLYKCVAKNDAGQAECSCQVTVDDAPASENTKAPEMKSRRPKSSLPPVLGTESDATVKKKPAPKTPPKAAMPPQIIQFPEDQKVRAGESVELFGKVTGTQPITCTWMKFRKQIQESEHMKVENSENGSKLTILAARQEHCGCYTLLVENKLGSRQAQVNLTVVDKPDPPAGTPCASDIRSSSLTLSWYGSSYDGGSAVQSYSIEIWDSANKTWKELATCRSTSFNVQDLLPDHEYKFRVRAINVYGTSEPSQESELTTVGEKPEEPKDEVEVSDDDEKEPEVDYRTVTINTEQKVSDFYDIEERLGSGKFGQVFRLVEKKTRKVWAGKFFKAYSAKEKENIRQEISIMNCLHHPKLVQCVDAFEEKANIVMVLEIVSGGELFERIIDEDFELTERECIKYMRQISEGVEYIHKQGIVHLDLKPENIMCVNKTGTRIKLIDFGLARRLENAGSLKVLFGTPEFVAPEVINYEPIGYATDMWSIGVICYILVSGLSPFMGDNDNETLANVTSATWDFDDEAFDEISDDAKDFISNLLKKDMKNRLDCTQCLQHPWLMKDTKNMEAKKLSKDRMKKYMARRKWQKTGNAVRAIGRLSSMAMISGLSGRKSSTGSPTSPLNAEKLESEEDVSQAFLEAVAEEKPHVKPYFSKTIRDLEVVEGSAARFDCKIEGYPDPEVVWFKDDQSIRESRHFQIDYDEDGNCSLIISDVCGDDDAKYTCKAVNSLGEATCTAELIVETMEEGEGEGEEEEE

[2] = biological target: T22, RSK4(Kin.Dom.1-N-terminal) (Homo sapiens, UniProt Q9UK32); test: KinomeScan; type: binding; conditions: read-out: % control
T22 construct: RSK4(Kin.Dom.1-N-terminal); purchased DiscoveRx KINOMEscan

CSNK1E = biological target: T23, CSNK1E (Homo sapiens, UniProt P49674); test: KinomeScan; type: binding; conditions: read-out: % control
T23 construct: purchased DiscoveRx KINOMEscan

VEGFR2 = biological target: T24, VEGFR2 (Homo sapiens, UniProt P35968); test: KinomeScan; type: binding; conditions: read-out: % control
T24 construct: purchased DiscoveRx KINOMEscan

TRKB = biological target: T25, TRKB (Homo sapiens, UniProt Q16620); test: KinomeScan; type: binding; conditions: read-out: % control
T25 construct: purchased DiscoveRx KINOMEscan

[3] = biological target: T26, ABL1(T315I)-phosphorylated (Homo sapiens, UniProt P00519, T315I); test: KinomeScan; type: binding; conditions: read-out: % control
T26 construct: purchased DiscoveRx KINOMEscan

ERK2 = biological target: T27, ERK2 (Homo sapiens, UniProt P28482); test: KinomeScan; type: binding; conditions: read-out: % control
T27 construct: purchased DiscoveRx KINOMEscan

PIK3CA(M1043I) = biological target: T28, PIK3CA(M1043I) (Homo sapiens, UniProt P42336, M1043I); test: KinomeScan; type: binding; conditions: read-out: % control
T28 construct: purchased DiscoveRx KINOMEscan

SGK2 = biological target: T29, SGK2 (Homo sapiens, UniProt Q9HBY8); test: KinomeScan; type: binding; conditions: read-out: % control
T29 construct: purchased DiscoveRx KINOMEscan

CDK8 = biological target: T30, CDK8 (Homo sapiens, UniProt P49336); test: KinomeScan; type: binding; conditions: read-out: % control
T30 construct: purchased DiscoveRx KINOMEscan

CDK5 = biological target: T31, CDK5 (Homo sapiens, UniProt Q00535); test: KinomeScan; type: binding; conditions: read-out: % control
T31 construct: purchased DiscoveRx KINOMEscan

T1 sequence (Q92630 whole entry): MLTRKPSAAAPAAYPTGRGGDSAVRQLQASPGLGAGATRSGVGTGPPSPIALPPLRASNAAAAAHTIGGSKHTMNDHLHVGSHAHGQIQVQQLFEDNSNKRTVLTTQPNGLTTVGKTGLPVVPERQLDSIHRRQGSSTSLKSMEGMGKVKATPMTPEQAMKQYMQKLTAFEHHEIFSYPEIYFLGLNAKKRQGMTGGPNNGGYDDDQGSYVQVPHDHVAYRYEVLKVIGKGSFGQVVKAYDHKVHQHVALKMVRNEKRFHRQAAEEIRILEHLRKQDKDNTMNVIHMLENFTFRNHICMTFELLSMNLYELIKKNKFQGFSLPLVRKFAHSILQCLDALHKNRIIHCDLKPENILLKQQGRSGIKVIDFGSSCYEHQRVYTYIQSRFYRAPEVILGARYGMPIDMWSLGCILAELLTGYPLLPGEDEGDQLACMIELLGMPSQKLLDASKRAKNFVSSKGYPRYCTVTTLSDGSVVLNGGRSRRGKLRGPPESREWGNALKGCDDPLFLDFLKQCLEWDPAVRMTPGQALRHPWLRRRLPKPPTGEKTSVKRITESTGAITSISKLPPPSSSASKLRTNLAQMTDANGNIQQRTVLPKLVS

SMILES: C=CC(=O)N1CCC[C@@H](n2nc(-c3ccc(OCc4cccc(C)n4)c(Cl)c3)c3c(N)ncnc32)C1 [CHMFL-EGFR-26]
- remaining binding at 1 µM (DYRK2): 86%
- remaining binding at 1 µM (PIP5K1A): 100%
- remaining binding at 1 µM (ABL1-nonphosphorylated): 87%
- remaining binding at 1 µM (TTK): 95%
- remaining binding at 1 µM (RIOK1): 90%
- remaining binding at 1 µM (EPHA4): 100%
- remaining binding at 1 µM (ULK2): 97%
- remaining binding at 1 µM (CAMK1B): 82%
- remaining binding at 1 µM (LIMK2): 100%
- remaining binding at 1 µM (PCTK1): 100%
- remaining binding at 1 µM (PIK3CD): 100%
- remaining binding at 1 µM (CSNK1A1L): 91%
- remaining binding at 1 µM (ERK8): 91%
- GI50 (H2122 (EGFR wt)): 3.5 µM
- GI50 (HCC827 (EGFR del19)): 0.036 µM
- GI50 (A549 (EGFR wt)): 5.4 µM
- GI50 (H1703 (EGFR wt)): 7.7 µM
- GI50 (PC-9 (EGFR del19)): 0.035 µM
- GI50 (H3255 (EGFRL858R)): 0.027 µM
- GI50 (H1355(EGFR wt)): 8.1 µM
- remaining binding at 1 µM (LATS2): 96%
- remaining binding at 1 µM (MST1R): 100%
- remaining binding at 1 µM [1]: 100%
- remaining binding at 1 µM (YES): 65%
- remaining binding at 1 µM (GSK3A): 100%
- remaining binding at 1 µM (TSSK1B): 89%
- remaining binding at 1 µM (AMPK-alpha2): 90%
- remaining binding at 1 µM (MYLK): 100%
- remaining binding at 1 µM [2]: 100%
- remaining binding at 1 µM (CSNK1E): 9.1%
- remaining binding at 1 µM (VEGFR2): 100%
- remaining binding at 1 µM (TRKB): 100%
- remaining binding at 1 µM [3]: 98%
- remaining binding at 1 µM (ERK2): 94%
- remaining binding at 1 µM (PIK3CA(M1043I)): 100%
- remaining binding at 1 µM (SGK2): 100%
- remaining binding at 1 µM (CDK8): 92%
- remaining binding at 1 µM (CDK5): 100%
